Reference: patent publication US20050025705A1, “Thrombosis animal models and their use in drug discovery and development” (priority 2003, published 2005)
Values joined by “and” are separate entries in the source; they are usually repeats but may differ in a detail not shown here. Equal entries are not always repeated. One block for each compound: values may come before it.

Columns and labels:
[1] = system: FeCl3-induced arterial thrombosis in C57BL/6 mice; assay: FeCl3-induced carotid artery thrombosis in mice, Doppler blood flow (Example 2); assay type: in vivo; conditions: for efficacy in blocking thrombus formation: relatively high FeCl3 concentrations, unless an extremely high drug concentration was used
Description: Mice were anesthetized with gas inhalation comprised of 30% oxygen (0.3 liter/min; Airgas East, Inc., Salem, N.H.) and 70% nitrous oxide (0.7 liter/min; Airgas East, Inc., Salem, N.H.). […] Louis, Mo.) to the adventitial surface of the carotid artery immediately proximal to the flow probe for 3 min and then removed. The carotid blood flow was monitored at 1, 5, 10, 20, 30 min or some times up to 60 min. Heparin was purchased from American Pharmaceutical Partners, Inc. (Los Angeles, Calif.); mice were infused with 10, 50, 200 and 1000 IU/kg, i.v. immediately prior to 2.5 or 5% FeCl3 treatment on the carotid artery. […] Aspirin (acetylsalicylic acid) and MRS2179 were purchased from Sigma. […] Data in text and figures are mean±standard errors for the indicated number (N) of animals.

[2] = system: tail bleeding time in C57BL/6 mice; assay: Mouse tail bleeding time
Description: Mice were anesthetized as described above and placed on a 37° C. heating pad. About 2-4 mm from the tip of mouse tail (in about 1 mm diameter) was cut with a disposable surgical blade. After transection, the tail was immediately placed into a 50-ml falcon tube filled with 37° C. saline and the bleeding time was recorded up to 30 min. Bleeding time over 30 min was considered as bleeding off scale.
Both thrombosis and bleeding studies were conducted within 2-4 hr after the second day of oral dosing.

[3] = system: 5% FeCl3-induced arterial thrombosis in C57BL/6 mice
Description: Adult mice (18-25 g, both male and female) were used for thrombosis study. Following anesthesia by pentobarbital (50 mg/kg, i.p.), an incision of the skin was made directly on top of the right common carotid artery region. The fascia was then blunt dissected and a segment of the […] common carotid artery was exposed. A Transonic flow probe (0.5 VB) was placed on the artery with gel to obtain the baseline flow readings (as time 0) via a Transonic […] Doppler flowmeter. Two pieces of filter paper (1×11⁄2 mm) pre-soaked with 5% FeCl3 solution were placed beneath and above the carotid artery for 3 min to induce thrombosis. The filter papers were removed and rinsed with saline. The blood flow was recorded every 5, 10, 20 and 30 min of FeCl3 treatment. […] Clopidogrel was administrated for two days. […] Data are illustrated as mean±standard errors using indicated number (N) of animals. Statistical comparisons were made by analysis of variance (ANOVA; Fisher's protected least squares difference) and values were considered to be significant at p<0.05.

[4] = cited from earlier work

Compound: CC(=O)Oc1ccccc1C(=O)O [aspirin, acetylsalicylic acid]
effect in blocking thrombosis ([1]; 2.5% FeCl3-induced thrombosis, aspirin 10 and 30 mg/kg i.p.): Very little effect
efficacy in blocking thrombus formation [1]: failed to show efficacy

prolongation in bleeding time ([2]; 1 mg/kg p.o.): no prolongation
animals bleeding off scale (over 30 min) ([2]; 10 mg/kg p.o.): 75%
increase in bleeding time ([2]; 10 mg/kg p.o., p<0.01, n=8): 11 fold and 10.9 fold
animals bleeding off scale (over 30 min) ([2]; 30 mg/kg (data not shown)): 100%
Compound: COC(=O)[C@H](c1ccccc1Cl)N1CCc2sccc2C1 [clopidogrel]
vascular patency ([1]; 2.5% FeCl3-induced thrombosis, 1 mg/kg p.o.): maintained in some
vascular patency (animals in which maintained) ([1]; 2.5% FeCl3-induced thrombosis, 3 mg/kg p.o.): all
dose required to show efficacy ([1]; 5% FeCl3-induced thrombosis, p.o.): 100 mg/kg
efficacy in blocking thrombus formation [1]: failed to show efficacy
protection from thrombosis ([3]; 10 mg/kg): failed to protect
animals that retained vascular patency ([3]; 100 mg/kg p.o.): 6 out of 9
AUC of the relative Doppler blood flow, over controls ([3]; 100 mg/kg p.o., p<0.01): 3.7 fold
antithrombotic effect ([3]; clinically relevant dose 1 mg/kg p.o.): No antithrombotic effect
dose needed for antithrombotic effect ([3]; p.o.): > 30 mg/kg

Compound: CNc1ncnc2c1ncn2[C@H]1C[C@H](OP(=O)(O)O)[C@@H](COP(=O)(O)O)O1 [MRS2179]
effective dose ([1]; 2.5% FeCl3-induced thrombosis, i.v.): 150 mg/kg
potency in blocking FeCl3-induced thrombosis ([1]; 2.5% FeCl3, compared with P2Y12 antagonists): less potent
efficacy in blocking thrombus formation [1]: failed to show efficacy

Compound: CSCCNc1nc(SCCC(F)(F)F)nc2c1ncn2[C@@H]1O[C@H](COP(=O)(O)OP(=O)(O)C(Cl)(Cl)P(=O)(O)O)[C@@H](O)[C@H]1O [cangrelor]
efficacy in 2.5% versus 5% FeCl3-induced thrombosis ([1]; 2.5% and 5% FeCl3): differential efficacy
efficacy in blocking thrombus formation [1]: failed to show efficacy

Compound: heparin
clotting activity ([4]; at concentrations greater than 4 ug/ml): not detectable
activated partial thromboplastin time (aPTT) assay times ([4]; at therapeutic range 1 to less than 3 ug/ml plasma): 35 to 100 s
vascular patency ([1]; 2.5% FeCl3-induced thrombosis, 200 IU/kg i.v.): maintained
dose required to inhibit thrombosis ([1]; 5% FeCl3-induced thrombosis, i.v.): 1000 IU/kg
efficacy in blocking thrombus formation [1]: failed to show efficacy
